Measurements: PubChem BioAssay (NCI)
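Grown in 96-well plates, cells were treated for 48 hours with each compound at five concentrations. Insufficient inhibition: endpoint recorded as highest concentration tested. Definition used: TGI = concentration required for complete inhibition of growth.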

Key:
Experiment in all cases: NCI anticancer screen, dose series, 48 h
NCI-H23 lung = system: NCI-H23 lung
HS 578T breast = system: HS 578T breast
HOP-62 NSCLC = system: HOP-62 NSCLC
A549 NSCLC = system: A549 NSCLC
A498 renal = system: A498 renal
SF-539 CNS = system: SF-539 CNS
MDA-MB-435 = system: MDA-MB-435
RPMI-8226 leukemia = system: RPMI-8226 leukemia
T-47D breast = system: T-47D breast
PC-3 prostate = system: PC-3 prostate
RXF 393 renal = system: RXF 393 renal
SK-MEL-28 melanoma = system: SK-MEL-28 melanoma
ACHN renal = system: ACHN renal
786-0 renal = system: 786-0 renal
UO-31 renal = system: UO-31 renal
LOX IMVI melanoma = system: LOX IMVI melanoma
SNB-19 CNS = system: SNB-19 CNS
U251 CNS = system: U251 CNS
NCI-H522 lung = system: NCI-H522 lung
SN12C renal = system: SN12C renal
KM12 colon = system: KM12 colon
IGROV1 ovarian = system: IGROV1 ovarian
CCRF-CEM leukemia = system: CCRF-CEM leukemia
SF-295 CNS = system: SF-295 CNS
SW-620 colon = system: SW-620 colon
TK-10 renal = system: TK-10 renal
OVCAR-3 ovarian = system: OVCAR-3 ovarian
UACC-62 melanoma = system: UACC-62 melanoma
MALME-3M melanoma = system: MALME-3M melanoma
MCF7 breast = system: MCF7 breast
OVCAR-8 ovarian = system: OVCAR-8 ovarian
EKVX NSCLC = system: EKVX NSCLC
NCI-H460 lung = system: NCI-H460 lung
M14 melanoma = system: M14 melanoma
CAKI-1 renal = system: CAKI-1 renal
SNB-75 CNS = system: SNB-75 CNS
SK-MEL-5 melanoma = system: SK-MEL-5 melanoma
SK-MEL-2 melanoma = system: SK-MEL-2 melanoma
HCT-116 colon = system: HCT-116 colon
OVCAR-5 ovarian = system: OVCAR-5 ovarian
COLO 205 colon = system: COLO 205 colon
SF-268 CNS = system: SF-268 CNS
HCT-15 colon = system: HCT-15 colon
UACC-257 melanoma = system: UACC-257 melanoma
HCC-2998 colon = system: HCC-2998 colon
HOP-92 NSCLC = system: HOP-92 NSCLC
K-562 leukemia = system: K-562 leukemia
MDA-N = system: MDA-N
SK-OV-3 ovarian = system: SK-OV-3 ovarian
NCI/ADR-RES ovarian = system: NCI/ADR-RES ovarian
NCI-H226 lung = system: NCI-H226 lung
DU-145 prostate = system: DU-145 prostate
OVCAR-4 ovarian = system: OVCAR-4 ovarian
MOLT-4 leukemia = system: MOLT-4 leukemia
MDA-MB-231 breast = system: MDA-MB-231 breast
HT29 colon = system: HT29 colon

Measured: TGI

Clc1ccc(C2ON=C(c3ccccc3)N2C23CC4CC(CC(C4)C2)C3)c(Cl)c1 (stereo unspecified)
> 10 µM: all assays above
